From EPA's ToxRefDB 2

Columns and labels:
rat [1] = conditions: Multigenerational reproductive toxicity study, sprague dawley, Inhalation, Whole-Body, dose end: 2 generation
rabbit [2] = conditions: Subchronic inhalation toxicity, new zealand white, Whole-Body, dose end: 13 week, group: systemic
mouse [3] = conditions: Carcinogenicity; cd1; Inhalation; Whole-Body; dose end: 18 month; group: systemic; systemic / in life observation / body weight / body weight gain + systemic / in life observation / mortality / mortality + systemic / …
mouse [4] = conditions: Subchronic inhalation toxicity, cd1, Whole-Body, dose end: 13 week, group: systemic
rat [5] = conditions: Combined chronic toxicity/carcinogenicity, fischer, Inhalation, Whole-Body, dose end: 104 week, group: systemic
rat [6] = conditions: Multigenerational reproductive toxicity study, sprague dawley, Inhalation, Whole-Body, dose end: 2 generation; remark: listed apart in the source
dog [7] = conditions: Chronic toxicity; beagle; Inhalation; Whole-Body; dose end: 12 month; group: systemic; systemic / in life observation / body weight / body weight gain + systemic / in life observation / clinical signs / dental fluorosis + …
rat [8] = conditions: Subchronic inhalation toxicity, fischer, Whole-Body, dose end: 14 day, group: systemic
rabbit [9] = conditions: Subchronic inhalation toxicity, new zealand white, Whole-Body, dose end: 14 day, group: systemic, systemic / pathology microscopic / brain / necrosis + systemic / pathology microscopic / brain / vacuolization + systemic / pathology …
dog [10] = conditions: Subchronic inhalation toxicity, beagle, Whole-Body, dose end: 13 week, group: systemic, systemic / in life observation / body weight / body weight + systemic / in life observation / body weight / body weight gain + systemic / …
rat [11] = conditions: Subchronic oral toxicity in rodents, fischer, Inhalation, Whole-Body, dose end: 90 day, group: systemic
[12] = group: offspring, systemic / in life observation / body weight / offspring (pup) weight
[13] = group: parental, systemic / pathology gross / lung / foci + systemic / pathology microscopic / lung / alveolar macrophages
[14] = group: parental, systemic / pathology gross / lung / foci + systemic / pathology microscopic / lung / alveolar macrophages + systemic / in life observation…
[15] = systemic / in life observation / body weight / body weight + systemic / in life observation / body weight / body weight gain + systemic / …
[16] = systemic / pathology microscopic / nose / inflammation + systemic / clinical chemistry / flouride / fluoride
[17] = systemic / in life observation / clinical signs / dental fluorosis
[18] = systemic / in life observation / clinical signs / dental fluorosis + systemic / clinical chemistry / albumin / albumin + systemic / clinical…
[19] = group: parental, systemic / pathology microscopic / lung / alveolar macrophages + systemic / in life observation / body weight / body weight + systemic / in …
[20] = group: parental, systemic / pathology microscopic / lung / alveolar macrophages + systemic / pathology gross / lung / foci
[21] = systemic / pathology microscopic / kidney / hyperplasia + systemic / pathology microscopic / kidney / basophilia
[22] = systemic / pathology microscopic / kidney / hyperplasia + systemic / pathology microscopic / kidney / basophilia + systemic / in life …
[23] = systemic / organ weight / brain / absolute + systemic / in life observation / clinical signs / tooth-mottling + systemic / pathology …
[24] = systemic / pathology microscopic / nose / inflammation

O=S(=O)(F)F [Sulfuryl fluoride]
LEL (rat [1]; [12]): 108 mg/kg/day
LOAEL (rat [1]; [12]): 108 mg/kg/day
NEL (rat [1]; [12]): 14 mg/kg/day
NOAEL (rat [1]; [12]): 14 mg/kg/day
LEL (rat [1]; [13]): 14 mg/kg/day
LOAEL (rat [1]; [13]): 14 mg/kg/day
NEL (rat [1]; [14]): 3.6 mg/kg/day
NOAEL (rat [1]; [14]): 3.6 mg/kg/day
LOAEL (rabbit [2]; [15]): 100 ppm
NOAEL (rabbit [2]; [15]): 29.8 ppm
LEL (rabbit [2]; [16]): 29.8 ppm
NEL (rabbit [2]; [16]): < 29.8 ppm
LEL (mouse [3]): 79.3 mg/kg/day
LOAEL (mouse [3]): 79.3 mg/kg/day
NEL (mouse [3]): 19.8 mg/kg/day
NOAEL (mouse [3]): 19.8 mg/kg/day
LEL (mouse [4]; systemic / clinical chemistry / flouride / fluoride): 30 ppm
LOAEL (mouse [4]; [15]): 100 ppm
NEL (mouse [4]; [15]): 10 ppm
NOAEL (mouse [4]; [15]): 30 ppm
LEL (rat [5]; [17]): 20 ppm
LOAEL (rat [5]; [17]): 20 ppm
NEL (rat [5]; [18]): 5 ppm
NOAEL (rat [5]; [18]): 5 ppm
LEL (rat [6]; [12]): 108 mg/kg/day
LOAEL (rat [6]; [12]): 108 mg/kg/day
NEL (rat [6]; [12]): 14 mg/kg/day
NOAEL (rat [6]; [12]): 14 mg/kg/day
NEL (rat [6]; [19]): 3.6 mg/kg/day
NOAEL (rat [6]; [19]): 3.6 mg/kg/day
LEL (rat [6]; [20]): 14 mg/kg/day
LOAEL (rat [6]; [20]): 14 mg/kg/day
LEL (dog [7]): 80 ppm
LOAEL (dog [7]): 80 ppm
NEL (dog [7]): 20 ppm
NOAEL (dog [7]): 20 ppm
LEL (rat [8]; [21]): 249 mg/kg/day
LOAEL (rat [8]; [21]): 249 mg/kg/day
NEL (rat [8]; [22]): 83 mg/kg/day
NOAEL (rat [8]; [22]): 83 mg/kg/day
LEL (rabbit [9]): 90 mg/kg/day
LOAEL (rabbit [9]): 90 mg/kg/day
NEL (rabbit [9]): 30 mg/kg/day
NOAEL (rabbit [9]): 30 mg/kg/day
LEL (dog [10]): 200 ppm
LOAEL (dog [10]): 200 ppm
NEL (dog [10]): 100 ppm
NOAEL (dog [10]): 100 ppm
LOAEL (rat [11]; [23]): 5 mg/kg/day
NOAEL (rat [11]; [23]): 1.49 mg/kg/day
LEL (rat [11]; [24]): 1.49 mg/kg/day
NEL (rat [11]; [24]): < 1.49 mg/kg/day
